Test in all cases: growth of human tumour cells (NCI), 48 h
In experiment [1] the test system is MDA-MB-231 breast.
Experiment [2] relates to HOP-92 NSCLC.
Experiment [3] deals with IGROV1 ovarian.
For experiment [4], the system named is MCF7 breast.
Experiment [5] deals with BT-549 breast.
Experiment [6] has as its system SK-MEL-28 melanoma.
The subject of experiment [7] is HS 578T breast.
For experiment [8], the system named is MOLT-4 leukemia.
Experiment [9] has as its system SN12C renal.
Experiment [10] relates to CAKI-1 renal.

From PubChem BioAssay (NCI) come the findings set out here.

Several values for one entry are separate records, joined by “and”; a condition that tells them apart may be missing. Equal entries are not always repeated.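 Results reflect a 48-hour exposure of cells in 96-well plates to compound at five concentrations. At the GI50, growth is halved. TGI denotes the concentration required for complete inhibition of growth.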

Regarding `O=C(c1ccc(C(F)(F)F)c(Cl)c1)N(Cc1ccc(Cl)cc1)c1ccc(-c2cc(C(F)(F)F)[nH]n2)c(O)c1`, the GI50 was 0.964 µM in experiment [1]; 0.629 µM in experiment [2]; 0.887 µM in experiment [3]; 1.12 µM in experiment [4]; 1.31 µM in experiment [5]; 1.43 µM in [6]. Moreover, the GI50 was 1.05 µM in [7], 1.32 µM in experiment [8], 0.886 µM in experiment [9] and 1.01 µM in experiment [10]. In addition, the TGI in [1] is 2.21 µM; in experiment [2] it was 2.14 µM; in experiment [3], 2.13 µM; in experiment [4], 3.85 µM; in [5] it was 3.99 µM; in experiment [6] it was 5.16 µM. The TGI is 3.03 µM in experiment [7], 5.09 µM in [8], 2.04 µM in experiment [9] and 3.04 µM in [10].
On to `Cn1cc(C2=C(c3cn(-c4ccccc4)c4ccccc34)C(=O)NC2=O)c2ccccc21`, for which the GI50 in experiment [1] was above 23.3 µM; in experiment [2], above 25 µM; in [3] it was 11.7 µM; in [4] it was 9.3 µM; in experiment [5], 16.2 µM; in experiment [6] it was 22.3 µM. The GI50 in [7] was above 14.6 µM; in experiment [8], 9.59 µM; in experiment [9] it was 15.8 µM; in experiment [10], 16.4 µM. Further, the TGI in experiment [1], in [2], in [3], in experiment [4], in experiment [5] and in experiment [6] was above 25 µM throughout. Also, the TGI in experiment [7], in experiment [8], in experiment [9] and in experiment [10] was above 25 µM in each case.
For `COc1cc(/C=C2\CCC/C(=C\c3ccc(O)c(OC)c3)C2=O)ccc1O`, the GI50 in [1] is 2.85 µM; in experiment [3] it was 1.85 µM; in experiment [4] it was 2.1 µM; in [5] it was 1.76 µM; in [6], 1.68 µM; in [7], 2.25 µM. In addition, the figures for the GI50 in [8], in experiment [9] and in [10] were 2.18 µM, 1.87 µM and 1.88 µM, respectively. For the same molecule, the TGI is 25.7 µM and 11.1 µM in [1]; 30.7 µM in [2]; 8.94 µM and 4.53 µM in experiment [3]; 40.5 µM and 9.81 µM in [4]; 14.2 µM and 3.28 µM in [5]; 16.4 µM and 4.05 µM in experiment [6]. Also, the TGI is 26.5 µM and 8.93 µM in experiment [7]; 25.6 µM and 15.5 µM in experiment [8]; 6.33 µM and 5.01 µM in [9]; 8.46 µM and 5.99 µM in experiment [10].
